Tested on: cardiac cell potassium channels
Assay: potassium ion-selective optical ion sensor fluorescence assay of electrically paced cardiac myocyte cells (hERG screening)
Format: cell-based
Conditions: 2.0 μM Haloperidol; myocyte cells paced at 1.0 Hz; FIG. 10D in comparison to FIG. 10B
Text: In one particular example, a cell assay system built in accordance with principles of the invention can be used to conduct hERG screening assays. The hERG gene regulates the activity of potassium ion channels in cardiac myocyte cells. In a functioning heart, electrical voltages are generated by modified myocytes in the sinoatrial and atrioventricular nodes (pacemaking nodes). Such voltages are propagated through the heart by the action of various voltage-gated ion channels that alter the voltage gradients across cardiac cell membranes by exchanging sodium, calcium, and potassium ions across the cell membrane. Various agents are known to interfere with the hERG gene, or otherwise block potassium channel operation, resulting in arrhythmia and potentially heart failure. […]
To test for potassium channel interference, cardiac myocyte cells are provided in a monolayer adhered to a biological sample holder. […] As potassium ions are passed into and out of the myocytes by potassium channels, the fluorescence of the potassium selective optical ion sensor varies in a detectable fashion.
FIGS. 10A and 10B are graphs charting the intensity of potassium ion-selective optical ion sensor fluorescence monitoring the activity of myocyte cells in a biological sample holder. […] The graph of FIG. 10A includes normalized raw fluorescence measurements, both observed and filtered. […]

O=C(CCCN1CCC(O)(c2ccc(Cl)cc2)CC1)c1ccc(F)cc1 [Haloperidol]
reduction of intensity of fluorescence oscillations at 1.0 Hz (change of extracellular potassium concentration per beat): 30%
